The target in this assay is GLP-1 Receptor (Homo sapiens, UniProt P43220). Description: GLP-1R agonist cAMP stimulation assay (Method 3, HEK293/GLP1R/CRE-LUC, HDB). The settings on record: HDB HEK293/CRE-Luc cell line. The assay is classed as cell-based. Here is the method:
The methodology for detection of cAMP using EFC requires incubation with 20 μL of cAMP XS+ED/CL lysis cocktail for one hour followed by incubation with 20 μL cAMP XS+EA reagent for three hours at room temperature. Microplates are read following signal generation with a PerkinElmer Envision instrument utilizing chemiluminescent signal detection. Compound activity is analyzed using CBIS data analysis suite (ChemInnovation, CA). Percentage activity is calculated using the following formula: % Activity=100%×(mean RLU of test sample−mean RLU of vehicle control)/(mean RLU of MAX control−mean RLU of vehicle control)) Method 3: Activation of GLP-1 receptor is known to stimulate cyclic AMP (cAMP) production in cells which indicates primary coupling to the Gαs subunit of the G protein heterotrimeric complex.
To optimize functional activity directed toward Gαs coupling, a HEK293/CRE-Luc cell line developed by HDB stably expressing the GLP-1 Receptor was used. 200× concentration of compound working solutions were prepared (Agilent Technologies Bravo) with 1/2 log serial dilution in 384-well Echo LDV plate (Labcyte, Cat #LP-0200). 50 nL/well 200× concentration of compound working solutions were moved to 384-well white low volume plate (Greiner, Cat #784075) using Labcyte ECHO550. 1×10^5 cells/mL HEK293/GLP1R/CRE-LUC(HD Biosciences) cell suspensions prepared with assay buffer [DPBS containing 0.5 mM IBMX(Sigma, Cat #15879) and 0.1% BSA(GENVIEW, Cat #FA016-100 g)], 10 μL cell suspensions were added to each well of previous generated assay plate which already contains 50 nL compound at 200× concentration using ThermoFisher Multidrop Combi (1000 cells/well). Seal the plate and incubate at 37° C. with 5% CO2 for 30 min.
After incubation the cAMP assay signal was generated using cAMP dynamic 2 Kit (Cisbio). 5 μL cAMP-d2 working solution was added to each well, followed with 5 μL Anti-cAMP antibody-cryptate working solution added to each well using ThermoFisher Multidrop Combi. Incubate at room temperature for 1 hour protected from light. […] (Method 3)

[1] abbreviates: read-out: GLP1R cAMP Stimulation DR: EC50 (nM) [Species: Human, Assay Cell Line: HDB].
[2] abbreviates: read-out: GLP1R cAMP Stimulation DR: pEC50 (M) [Species: Human, Assay Cell Line: HDB] (converted).

SMILES strings stand for the structures. Where two headings read alike, the source gives them in different places.

Sequence of GLP-1 Receptor (P43220 24-463): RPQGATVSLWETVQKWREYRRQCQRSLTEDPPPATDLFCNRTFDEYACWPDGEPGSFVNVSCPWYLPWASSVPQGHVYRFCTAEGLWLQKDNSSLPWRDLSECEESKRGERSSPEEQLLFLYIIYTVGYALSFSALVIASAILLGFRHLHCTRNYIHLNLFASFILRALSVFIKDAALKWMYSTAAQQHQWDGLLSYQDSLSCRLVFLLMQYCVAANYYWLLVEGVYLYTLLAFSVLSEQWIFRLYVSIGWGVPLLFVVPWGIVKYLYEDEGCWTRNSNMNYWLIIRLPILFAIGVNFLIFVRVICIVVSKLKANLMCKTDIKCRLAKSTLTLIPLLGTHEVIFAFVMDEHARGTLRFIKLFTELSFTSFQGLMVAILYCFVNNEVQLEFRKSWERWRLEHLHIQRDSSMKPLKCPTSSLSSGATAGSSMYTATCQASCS

For `Cc1cc(-n2nc3c(c2-n2ccn(-c4ccc(P(C)(C)=O)cc4)c2=O)[C@H](C)N(C(=O)c2cc4cc(C5CCOC(C)(C)C5)ccc4n2[C@@]2(c4noc(=O)[nH]4)C[C@@H]2C)CC3)cc(C)c1F` (stereo partly drawn) [Compound 102a, 3-((1S,2S)-1-(2-((S)-3-(3-(4-(dimethylphosphoryl)phenyl)-2-oxo-2,3-dihydro-1H-imidazol-1-yl)-2-(4-fluoro-3,5-dimethylphenyl)-4-methyl-4,5,6,7-tetrahydro-2H-pyrazolo[4,3-c]pyridine-5-carbonyl)-5-(2,2-dimethyltetrahydro-2H-pyran-4-yl)-1H-indol-1-yl)-2-methylcyclopropyl)-1,2,4-oxadiazol-5 (4H)-one], the EC50 is less than 0.1 nM under setting [1] and not above 0.1 nM under setting [2].

Consider `CCP(=O)(CC)c1ccc(-n2ccn(-c3c4c(nn3-c3cc(C)c(F)c(C)c3)CCN(C(=O)c3cc5cc([C@H]6CCOC(C)(C)C6)ccc5n3[C@@]3(c5noc(=O)[nH]5)C[C@@H]3C)[C@H]4C)c2=O)cc1` [Compound 130b, 3-((1S,2S)-1-(2-((S)-3-(3-(4-(diethylphosphoryl)phenyl)-2-oxo-2,3-dihydro-1H-imidazol-1-yl)-2-(4-fluoro-3,5-dimethylphenyl)-4-methyl-4,5,6,7-tetrahydro-2H-pyrazolo[4,3-c]pyridine-5-carbonyl)-5-((S)-2,2-dimethyltetrahydro-2H-pyran-4-yl)-1H-indol-1-yl)-2-methylcyclopropyl)-1,2,4-oxadiazol-5 (4H)-one], for which the EC50 under setting [1] is less than 0.1 nM and the EC50 under setting [2] was not above 0.1 nM.

Turning to `CNc1cc(-n2ccn(-c3c4c(nn3-c3cc(C)c(F)c(C)c3)CCN(C(=O)c3cc5cc(C6CCOCC6)ccc5n3[C@@]3(c5noc(=O)[nH]5)C[C@@H]3C)[C@H]4C)c2=O)ccc1P(C)(=O)C(C)(C)C` (stereo partly drawn) [Compound 131a, 3-((1S,2S)-1-(2-((4S)-3-(3-(4-(tert-butyl(methyl)phosphoryl)-3-(methylamino)phenyl)-2-oxo-2,3-dihydro-1H-imidazol-1-yl)-2-(4-fluoro-3,5-dimethylphenyl)-4-methyl-4,5,6,7-tetrahydro-2H-pyrazolo[4,3-c]pyridine-5-carbonyl)-5-(tetrahydro-2H-pyran-4-yl)-1H-indol-1-yl)-2-methylcyclopropyl)-1,2,4-oxadiazol-5 (4H)-one], the EC50 is, setting by setting: under setting [1], 0.1 to 0.2 nM; under setting [2], 0.1 to 1 nM.

With `CCP(=O)(CC)c1ccc(-n2ccn(-c3c4c(nn3-c3cc(C)c(F)c(C)c3)CCN(C(=O)c3cc5cc(C6CCOCC6)ccc5n3[C@@]3(c5noc(=O)[nH]5)C[C@@H]3C)[C@H]4C)c2=O)cc1C(F)F` [Compound 142a, 3-((1S,2S)-1-(2-((S)-3-(3-(4-(diethylphosphoryl)-3-(difluoromethyl)phenyl)-2-oxo-2,3-dihydro-1H-imidazol-1-yl)-2-(4-fluoro-3,5-dimethylphenyl)-4-methyl-4,5,6,7-tetrahydro-2H-pyrazolo[4,3-c]pyridine-5-carbonyl)-5-(tetrahydro-2H-pyran-4-yl)-1H-indol-1-yl)-2-methylcyclopropyl)-1,2,4-oxadiazol-5 (4H)-one], the EC50 reads like this: under setting [1], less than 0.1 nM; under setting [2], not above 0.1 nM.

Turning to `CNc1cc(-n2ccn(-c3c4c(nn3-c3cc(C)c(F)c(C)c3)CCN(C(=O)c3cc5cc(C6CCOCC6)ccc5n3C3(c5noc(=O)[nH]5)CC3)[C@H]4C)c2=O)ccc1P(C)(=O)C(C)(C)C` (stereo partly drawn) [Compound 149a, 3-(1-(2-((4S)-3-(3-(4-(tert-butyl(methyl)phosphoryl)-3-(methylamino)phenyl)-2-oxo-2,3-dihydro-1H-imidazol-1-yl)-2-(4-fluoro-3,5-dimethylphenyl)-4-methyl-4,5,6,7-tetrahydro-2H-pyrazolo[4,3-c]pyridine-5-carbonyl)-5-(tetrahydro-2H-pyran-4-yl)-1H-indol-1-yl)cyclopropyl)-1,2,4-oxadiazol-5 (4H)-one], the EC50 by setting is: under setting [1], 0.1 to 0.2 nM; under setting [2], 0.1 to 1 nM.

Values taken from patent US11926643B2, “Heterocyclic GLP-1 agonists” (Gasherbrum Bio, Inc., priority 2020, dated 2024).
